Assay results reported in ChEMBL document CHEMBL1159280, “Idiospermuline, a trimeric pyrrolidinoindoline alkaloid from the seed of Idiospermum australiense” (1995).
Active and inactive are the calls of the source. No cut-off for these calls is given here.

Columns and labels:
Type in all cases: functional
Rattus norvegicus [1] = species on record: Rattus norvegicus; test: Effect on neurochemical transmission in Sprague-Dawley rat cortical wedge assessed as hyperpolarization activity at 10 to 100 uM
[2] = Reduction of acetylcholine-induced depolarizing response in Sprague-Dawley rat cortical wedge at 10 uM relative to control; set-up: scale not given: the % may be the effect or the level left
[3] = Reduction of acetylcholine-induced depolarizing response in Sprague-Dawley rat cortical wedge at 50 uM relative to control; set-up: scale not given: the % may be the effect or the level left
Rattus norvegicus [4] = species on record: Rattus norvegicus; test: Effect on neurochemical transmission in Sprague-Dawley rat cortical wedge assessed as hyperpolarization activity at 50 to 500 uM

SMILES	Activity (Rattus norvegicus [1])	Activity [2]	Activity [3]	Activity (Rattus norvegicus [4])
CN1CC[C@@]2(c3cccc4c3N[C@H]3N(C)CC[C@@]43[C@@]34CCN(C)[C@@H]3N(C)c3ccccc34)c3ccccc3N(C)[C@@H]12 [IDIOSPERMULINE]	Active	61.2%		
CN1CC[C@]2([C@]34CCN(C)[C@H]3Nc3ccccc34)c3ccccc3N[C@H]12 [CHIMONANTHINE]	Active	58.3%		
CN1CC[C@]23c4ccccc4N[C@H]1[C@]21CCN(C)[C@H]3Nc2ccccc21 [CALYCANTHINE]			20.4%	Active
